Drawing on patent publication US20260317324A1, “BIFUNCTIONAL COMPOUNDS FOR DEGRADING BRAF VIA UBIQUITIN PROTEOSOME PATHWAY” (Nurix Therapeutics, Inc., priority 2023, published 2026), this text covers DC50 and Dmax for nine compounds.

Holding throughout (format): cell-based
The target of one assay is T1, BRAF D594G (Homo sapiens, UniProt P15056, D594G).
T1 construct: Horizon Discovery (HCT-116 BRAF−/− cells); host or cells: HCT-116 BRAF−/− cells, clone 63, lentiviral transduction
Briefly: BRAF HiBiT degradation assay, C-terminal HiBiT-tagged BRAF D594G overexpressed in HCT-116 BRAF−/− cells (clone 63), Nano-Glo HiBiT Lytic assay. A digest of the protocol: (§1)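 Luminescence from the lytic HiBiT reagent, read after 10 min at room temperature, measured tagged BRAF remaining in lentivirally transduced HCT-116 BRAF−/− cells. Compounds were tested from 1 μM to 0.01 nM in half-log steps at 0.2% DMSO. DC50 values were fitted at 50% remaining.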

The next assay concerns the target T2, BRAF G469A (Homo sapiens, UniProt P15056, G469A).
T2 construct: Horizon Discovery (HCT-116 BRAF−/− cells); host or cells: HCT-116 BRAF−/− cells, clone 34, lentiviral transduction
In words: BRAF HiBiT degradation assay, C-terminal HiBiT-tagged BRAF G469A overexpressed in HCT-116 BRAF−/− cells (clone 34), Nano-Glo HiBiT Lytic assay. In outline:
as §1
Background: HiBiT is a short tag that completes a luciferase, so light tracks the accessible tagged protein.

A further assay addresses T3, BRAF G466V (Homo sapiens, UniProt P15056, G466V).
T3 construct: Horizon Discovery (HCT-116 BRAF−/− cells); host or cells: HCT-116 BRAF−/− cells, clone 8, lentiviral transduction
In words: BRAF HiBiT degradation assay, C-terminal HiBiT-tagged BRAF G466V overexpressed in HCT-116 BRAF−/− cells (clone 8), Nano-Glo HiBiT Lytic assay. In outline:
as §1

Another assay has as its target T4, BRAF V600E (Homo sapiens, UniProt P15056, V600E).
T4 construct: endogenous C-terminal HiBiT fusion tag on BRAF V600E allele; endogenous in cells; host or cells: A375 clone 1F10 (CRISPR-Cas9 knock-in of the HiBiT tag; parental A375 from ATCC)
Briefly: BRAF HiBiT degradation assay, C-terminal HiBiT-tagged BRAF V600E A375 cells (clone 1F10), Nano-Glo HiBiT Lytic assay. The settings on record: for Dmax: A-375. In outline: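 Endogenous BRAF V600E-HiBiT A375 (1F10), 10,000 cells/well, 24 h preculture; cpd 11-pt, 1 μM–0.01 nM half-log, n=2, 0.2% DMSO; HiBiT lytic detection 10 min RT; DC50 = fitted conc at Y=50; Obs. Dmax vs DMSO.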

The mark [1] stands for this setting: BRAF D594G (Class 3), HCT-116 BRAF−/− cells, DC50 at 50% degradation.
Setting [2] is: BRAF D594G (Class 3), HCT-116 BRAF−/− cells, observed Dmax relative to DMSO control.
Where [3] appears, read: BRAF G469A (Class 2), HCT-116 BRAF−/− cells, DC50 at 50% degradation.
[4] abbreviates: BRAF G469A (Class 2), HCT-116 BRAF−/− cells, observed Dmax relative to DMSO control.
Setting [5] is: BRAF G466V (Class 3), HCT-116 BRAF−/− cells, DC50 at 50% degradation.
The mark [6] stands for this setting: BRAF G466V (Class 3), HCT-116 BRAF−/− cells, observed Dmax relative to DMSO control.
Where [7] appears, read: A375 (BRAF V600E, Class 1), DC50 at 50% degradation.
[8] abbreviates: A375 (BRAF V600E, Class 1), observed Dmax, % protein degraded relative to DMSO control.
Where [9] appears, read: BRAF D594G, DC50 at 50%: fitted conc. at Y=50.
Setting [10] is: HCT-116, BRAF D594G, percentage protein degraded at maximal compound effect relative to DMSO.
[11] abbreviates: Class 2, BRAF G469A, DC50 at 50%: fitted conc. at Y=50.
The mark [12] stands for this setting: HCT-116, Class 2, BRAF G469A, percentage protein degraded at maximal compound effect relative to DMSO.
Setting [13] is: BRAF G466V, DC50 at 50%: fitted conc. at Y=50.
Setting [14] is: HCT-116, BRAF G466V, percentage protein degraded at maximal compound effect relative to DMSO.
Where [15] appears, read: A375 (BRAF V600E), DC50 at 50%: fitted conc. at Y=50.
Setting [16] is: A375 (BRAF V600E), percentage protein degraded at maximal compound effect relative to DMSO.

T2 sequence (P15056 whole entry G469A): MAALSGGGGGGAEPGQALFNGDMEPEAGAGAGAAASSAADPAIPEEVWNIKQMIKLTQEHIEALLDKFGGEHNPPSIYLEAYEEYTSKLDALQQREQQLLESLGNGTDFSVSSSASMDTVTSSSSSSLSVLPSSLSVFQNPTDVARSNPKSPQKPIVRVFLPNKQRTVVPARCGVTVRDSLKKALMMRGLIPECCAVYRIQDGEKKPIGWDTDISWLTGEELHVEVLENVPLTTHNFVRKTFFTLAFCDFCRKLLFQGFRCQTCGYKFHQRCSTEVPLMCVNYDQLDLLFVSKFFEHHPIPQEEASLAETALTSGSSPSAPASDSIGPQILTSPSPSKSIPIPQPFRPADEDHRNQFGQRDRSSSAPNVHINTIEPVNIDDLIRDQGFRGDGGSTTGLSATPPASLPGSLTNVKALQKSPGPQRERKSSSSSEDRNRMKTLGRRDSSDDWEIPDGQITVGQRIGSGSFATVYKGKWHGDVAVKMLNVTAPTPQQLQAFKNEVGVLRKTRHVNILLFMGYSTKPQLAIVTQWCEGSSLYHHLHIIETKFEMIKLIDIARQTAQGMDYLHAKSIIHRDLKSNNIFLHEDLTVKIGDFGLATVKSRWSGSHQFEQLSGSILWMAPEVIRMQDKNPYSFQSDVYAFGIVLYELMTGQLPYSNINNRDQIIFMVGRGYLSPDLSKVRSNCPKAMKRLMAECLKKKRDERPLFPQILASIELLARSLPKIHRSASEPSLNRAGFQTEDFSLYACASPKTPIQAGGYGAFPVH
T4 sequence (P15056 whole entry V600E, the tested form may be a part): as the sequence (P15056 whole entry G469A) above, with A469G, V600E counted along it
T1 sequence (P15056 whole entry D594G): as the sequence (P15056 whole entry G469A) above, with A469G, D594G counted along it
T3 sequence (P15056 whole entry G466V): as the sequence (P15056 whole entry G469A) above, with G466V, A469G counted along it

The DC50 is the concentration giving 50% degradation. Read a low DC50 as a more potent degrader. The Dmax is the largest share of the target that was removed. A high value points to a fuller loss of target. For the compound `O=C1CCN(c2ccc(N3CCC(CN4CCN(c5ccc(-n6cc(-c7cc(Cl)cc(NS(=O)(=O)N8CCCC8)c7F)c(-c7ccncc7)n6)nc5)CC4)CC3)cc2)C(=O)N1` [Compound 287, N-[5-chloro-3-(1-{5-[4-({1-[4-(2,4-dioxo-1,3-diazinan-1-yl)phenyl]piperidin-4-yl}methyl)piperazin-1-yl]pyridin-2-yl}-3-(pyridin-4-yl)-1H-pyrazol-4-yl)-2-fluorophenyl]pyrrolidine-1-sulfonamide], the DC50 is less than 10 nM at BRAF D594G (setting [1]), 10 to 50 nM on BRAF G469A (setting [3]), less than 10 nM on BRAF G466V (setting [5]) and less than 10 nM on BRAF V600E (setting [7]). Besides, the maximal degradation (Dmax) on BRAF D594G (setting [2]) was 30 to 70%; on BRAF G469A (setting [4]) it was 30 to 70%; at BRAF G466V (setting [6]), 30 to 70%; on BRAF V600E (setting [8]) it was greater than 70%.
With `O=C1CCC(c2ccc(N3CCC(CN4CCN(c5ccc(-n6cc(-c7cc(Cl)cc(NS(=O)(=O)N8CCCC8)c7F)c(-c7ccncc7)n6)c(F)c5)CC4)CC3)nc2)C(=O)N1` (racemic) [Compound 266, Rac-(R)—N-(5-chloro-3-(1-(4-(4-((1-(5-(2,6-dioxopiperidin-3-yl)pyridin-2-yl)piperidin-4-yl)methyl)piperazin-1-yl)-2-fluorophenyl)-3-(pyridin-4-yl)-1H-pyrazol-4-yl)-2-fluorophenyl)pyrrolidine-1-sulfonamide], the half-maximal degradation concentration (DC50) on BRAF D594G (setting [1]) is less than 10 nM; at BRAF G469A (setting [3]), 10 to 50 nM; on BRAF G466V (setting [5]), less than 10 nM; on BRAF V600E (setting [7]) it was less than 10 nM. The Dmax was 30 to 70% at BRAF D594G (setting [2]), greater than 70% on BRAF G469A (setting [4]), greater than 70% at BRAF G466V (setting [6]) and greater than 70% at BRAF V600E (setting [8]).
On to `CCCS(=O)(=O)Nc1cccc(-c2nc(C3CCN(C4CN(C(=O)CC5CCN(c6ccc(C7CCC(=O)NC7=O)cc6)CC5)C4)CC3)sc2-c2ccnc(N)n2)c1F` (racemic) [Compound 215, Rac-N-{3-[5-(2-aminopyrimidin-4-yl)-2-(1-{1-[2-(1-{4-[(3R)-2,6-dioxopiperidin-3-yl]phenyl}piperidin-4-yl)acetyl]azetidin-3-yl}piperidin-4-yl)-1,3-thiazol-4-yl]-2-fluorophenyl}propane-1-sulfonamide], for which the 50% degradation concentration (DC50) at BRAF D594G (setting [9]) was greater than 500 nM; on BRAF G469A (setting [11]), greater than 500 nM; on BRAF G466V (setting [13]), greater than 500 nM; at BRAF V600E (setting [15]), 10 to 50 nM. Also, the Dmax at BRAF D594G (setting [10]) was less than 30%; on BRAF G469A (setting [12]), less than 30%; at BRAF G466V (setting [14]), less than 30%; on BRAF V600E (setting [16]) it was greater than 70%.
Take `CCCS(=O)(=O)Nc1cccc(-c2nc(C3CCN(C(=O)C4CCN(CC5CCN(c6ccc(C7CCC(=O)NC7=O)cn6)CC5)CC4)CC3)sc2-c2ccnc(NC)n2)c1F` (racemic) [Compound 217, Rac-N-{3-[2-(1-{1-[(1-{5-[(3R)-2,6-dioxopiperidin-3-yl]pyridin-2-yl}piperidin-4-yl)methyl]piperidine-4-carbonyl}piperidin-4-yl)-5-[2-(methylamino)pyrimidin-4-yl]-1,3-thiazol-4-yl]-2-fluorophenyl}propane-1-sulfonamide]: the 50% degradation concentration (DC50) at BRAF D594G (setting [9]) was greater than 500 nM; at BRAF G469A (setting [11]), greater than 500 nM; at BRAF G466V (setting [13]) it was greater than 500 nM; on BRAF V600E (setting [15]), 10 to 50 nM. Moreover, the Dmax was 30 to 70% at BRAF D594G (setting [10]), less than 30% on BRAF G469A (setting [12]), 30 to 70% at BRAF G466V (setting [14]) and greater than 70% at BRAF V600E (setting [16]).
Take `O=C1CCC(c2ccc(N3CCC(CN4CCN(c5cc(F)c(-n6cc(-c7cc(Cl)cc(NS(=O)(=O)N8CCCC8)c7F)c(-c7ccncc7)n6)cc5F)CC4)CC3)nc2)C(=O)N1` (racemic) [Compound 354, Rac-N-{5-chloro-3-[1-(4-{4-[(1-{5-[(3R)-2,6-dioxopiperidin-3-yl]pyridin-2-yl}piperidin-4-yl)methyl]piperazin-1-yl}-2,5-difluorophenyl)-3-(pyridin-4-yl)-1H-pyrazol-4-yl]-2-fluorophenyl}pyrrolidine-1-sulfonamide]: the DC50 at BRAF D594G (setting [1]) was less than 10 nM; at BRAF G469A (setting [3]) it was 10 to 50 nM; on BRAF G466V (setting [5]), less than 10 nM; on BRAF V600E (setting [7]), less than 10 nM. Further, the maximal degradation (Dmax) is 30 to 70% at BRAF D594G (setting [2]), 30 to 70% at BRAF G469A (setting [4]), greater than 70% at BRAF G466V (setting [6]) and greater than 70% at BRAF V600E (setting [8]).
As to `CCCS(=O)(=O)Nc1cccc(-c2cn(-c3ccc(N4CCN(CC5CCN(c6ccc(C7CCC(=O)NC7=O)cc6F)CC5)CC4)cc3)nc2-c2ccncc2)c1F` (racemic) [Compound 18, Rac-N-{3-[1-(4-{4-[(1-{4-[(3R)-2,6-dioxopiperidin-3-yl]-2-fluorophenyl}piperidin-4-yl)methyl]piperazin-1-yl}phenyl)-3-(pyridin-4-yl)-1H-pyrazol-4-yl]-2-fluorophenyl}propane-1-sulfonamide], the 50% degradation concentration (DC50) on BRAF D594G (setting [9]) is 10 to 50 nM; at BRAF G469A (setting [11]), greater than 500 nM; at BRAF G466V (setting [13]), 10 to 50 nM; on BRAF V600E (setting [15]), 10 to 50 nM. Moreover, the maximal degradation (Dmax) on BRAF D594G (setting [10]) is 30 to 70%; at BRAF G469A (setting [12]), 30 to 70%; at BRAF G466V (setting [14]), 30 to 70%; at BRAF V600E (setting [16]), greater than 70%.
For the compound `CCCS(=O)(=O)Nc1cccc(-c2nc(C(C)(C)C)sc2-c2ccnc(Nc3cnn(CC4CCN(C(=O)CN5CCC(c6ccc(NC7CCC(=O)NC7=O)cc6)CC5)CC4)c3)n2)c1F` (racemic) [Compound 116, Rac-N-(3-{2-tert-butyl-5-[2-({1-[(1-{2-[4-(4-{[(3R)-2,6-dioxopiperidin-3-yl]amino}phenyl)piperidin-1-yl]acetyl}piperidin-4-yl)methyl]-1H-pyrazol-4-yl}amino)pyrimidin-4-yl]-1,3-thiazol-4-yl}-2-fluorophenyl)propane-1-sulfonamide], the DC50 was greater than 500 nM on BRAF D594G (setting [9]), greater than 500 nM at BRAF G469A (setting [11]), greater than 500 nM at BRAF G466V (setting [13]) and 10 to 50 nM at BRAF V600E (setting [15]). Besides, the Dmax was less than 30% at BRAF D594G (setting [10]), less than 30% at BRAF G469A (setting [12]), 30 to 70% at BRAF G466V (setting [14]) and greater than 70% at BRAF V600E (setting [16]).
For the compound `CCCS(=O)(=O)Nc1cccc(-c2cn(C3CCN(C(=O)C4(C)CCN(C(=O)C5CCN(c6ccc(C7CCC(=O)NC7=O)cn6)CC5)CC4)CC3)nc2-c2ccncc2)c1F` (racemic) [Compound 8, Rac-N-[3-(1-{1-[1-(1-{5-[(3R)-2,6-dioxopiperidin-3-yl]pyridin-2-yl}piperidine-4-carbonyl)-4-methylpiperidine-4-carbonyl]piperidin-4-yl}-3-(pyridin-4-yl)-1H-pyrazol-4-yl)-2-fluorophenyl]propane-1-sulfonamide], the DC50 on BRAF D594G (setting [9]) was greater than 500 nM; at BRAF G469A (setting [11]), greater than 500 nM; at BRAF G466V (setting [13]), greater than 500 nM; on BRAF V600E (setting [15]) it was 10 to 50 nM. The Dmax on BRAF D594G (setting [10]) is 30 to 70%; on BRAF G469A (setting [12]), 30 to 70%; at BRAF G466V (setting [14]), 30 to 70%; on BRAF V600E (setting [16]), greater than 70%.
`CCCS(=O)(=O)Nc1cccc(-c2nc(C3CCN(C(=O)C4CCN(C(=O)C5(C)CCN(c6ccc(C7CCC(=O)NC7=O)cn6)CC5)CC4)CC3)sc2-c2ccnc(N)n2)c1F` (racemic) [Compound 193, Rac-N-{3-[5-(2-aminopyrimidin-4-yl)-2-{1-[1-(1-{5-[(3R)-2,6-dioxopiperidin-3-yl]pyridin-2-yl}-4-methylpiperidine-4-carbonyl)piperidine-4-carbonyl]piperidin-4-yl}-1,3-thiazol-4-yl]-2-fluorophenyl}propane-1-sulfonamide]: the half-maximal degradation concentration (DC50) on BRAF D594G (setting [9]) was less than 10 nM; on BRAF G469A (setting [11]) it was greater than 500 nM; at BRAF G466V (setting [13]) it was 10 to 50 nM; on BRAF V600E (setting [15]), less than 10 nM. For the same compound, the Dmax on BRAF D594G (setting [10]) was 30 to 70%; on BRAF G469A (setting [12]), 30 to 70%; at BRAF G466V (setting [14]), 30 to 70%; at BRAF V600E (setting [16]) it was greater than 70%.
